This passage reports Ki and IC50 results from patent publication US20250313572A1, “MACROCYCLIC MCL-1 INHIBITORS AND METHODS OF USE” (AbbVie Inc., priority 2017, published 2025).

In general, Ki refers to the dissociation constant of the complex between target and ligand, obtained from inhibition or displacement. Broadly, the IC50 is the concentration that inhibits the measured activity by half.

Like-named read-outs stand apart in the source and are kept apart here.

One assay deals with GST-MCL-1 (Homo sapiens, UniProt Q07820). As to the kind of experiment: TR-FRET MCL-1 binding assay (competition with probe F-Bak). The procedure:
Tb-anti-GST antibody was purchased from Invitrogen (Catalog No. PV4216).
For the assay, an acoustic dispenser was used to prepare dilution series from 10 mM test compounds in 100% DMSO and directly transfer 160 nL into low volume 384-well assay plates. 8 μL of a protein/probe/antibody mix was then added to each well resulting in final concentrations listed below: • Test compound: 11 three-fold dilutions beginning at 25 μM
The samples were then mixed on a shaker for 1 minute and incubated for an additional 2 hours at room temperature. For each assay plate, a probe/antibody and protein/antibody/probe mixture were included as a negative and a positive control, respectively. Fluorescence was measured on the Envision (Perkin Elmer) using a 340/35 nm excitation filter and 520/525 (F-Bak) and 495/510 nm (Tb-labeled anti-his antibody) emission filters. […] The TR-FRET assay can be performed in the presence of varying concentrations of human serum (HS) or fetal bovine serum (FBS). Compounds were tested both without HS and in the presence of 10% HS.

Assay [1] deals with AMO-1 human multiple myeloma tumor cell line. As to the kind of experiment: AMO-1 cell viability assay (CellTiter-Glo, 24 hours). It is filed as cell-based. The following applies: Homo sapiens, AMO1, 24 h, read-out: AMO-1 Viability IC50 (μM, 10% FBS), 10% FBS, 24 hours of compound treatment.
The subject of assay [2] is NCI-H929 human multiple myeloma tumor cell line. As to the kind of experiment: NCI-H929 cell viability assay (CellTiter-Glo, 24 hours). Type of assay: cell-based. To be noted: Homo sapiens, NCI-H929, 24 h, read-out: H929 Viability IC50 (μM, 10% FBS), 10% FBS, 24 hours of compound treatment. (In general: In ATP-based viability assays light output follows the ATP content of the culture.)

The mark [3] stands for this setting: MCL-1 Binding Ki (nM, 10% HS), in the presence of 10% HS (human serum).
Setting [4] is: without HS, read-out: MCL-1 Binding Ki.

Chain of GST-MCL-1 (Q07820 whole entry): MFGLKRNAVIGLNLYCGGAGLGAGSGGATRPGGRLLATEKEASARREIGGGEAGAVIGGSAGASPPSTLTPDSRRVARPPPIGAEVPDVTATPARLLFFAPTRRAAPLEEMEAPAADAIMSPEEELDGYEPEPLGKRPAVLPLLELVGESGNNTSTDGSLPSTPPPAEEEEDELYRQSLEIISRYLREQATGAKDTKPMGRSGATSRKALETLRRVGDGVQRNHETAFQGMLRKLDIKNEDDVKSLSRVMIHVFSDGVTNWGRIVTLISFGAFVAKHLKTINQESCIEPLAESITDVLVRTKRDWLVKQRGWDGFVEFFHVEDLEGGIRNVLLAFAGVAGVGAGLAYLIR

As for `COCCOCCOC[C@H]1CC[C@H](c2nccc(COc3ccc4cc3C[C@H](C(=O)O)Oc3ncnc5sc(-c6ccc(F)cc6)c(c35)-c3c(C)c(Cl)c(c(Cl)c3C)O[C@H](CN3CCN(C)CC3)CO4)n2)CC1` [Example 160, (7R,16R)-19,23-dichloro-1-(4-fluorophenyl)-10-({2-[(1r,4r)-4-{[2-(2-methoxyethoxy)ethoxy]methyl}cyclohexyl]pyrimidin-4-yl}methoxy)-20,22-dimethyl-16-[(4-methylpiperazin-1-yl)methyl]-7,8,15,16-tetrahydro-18,21-etheno-13,9-(metheno)-6,14,17-trioxa-2-thia-3,5-diazacyclononadeca[1,2,3-cd]indene-7-carboxylic Acid], the Ki at GST-MCL-1 (setting [3]) amounted to 0.083 nM; on GST-MCL-1 (setting [4]), 0.005 nM. Besides, the IC50 in assay [1] is 0.000116 µM; in assay [2] it was 0.000206 µM.

`COCCOCCOCCOCCCN1CCN(c2nccc(COc3ccc4cc3C[C@H](C(=O)O)Oc3ncnc5sc(-c6ccc(F)cc6)c(c35)-c3c(C)c(Cl)c(c(Cl)c3C)O[C@H](CN3CCN(C)CC3)CO4)n2)CC1` [Example 53, (7R,16R)-19,23-dichloro-1-(4-fluorophenyl)-20,22-dimethyl-16-[(4-methylpiperazin-1-yl)methyl]-10-({2-[4-(2,5,8,11-tetraoxatetradecan-14-yl)piperazin-1-yl]pyrimidin-4-yl}methoxy)-7,8,15,16-tetrahydro-18,21-etheno-13,9-(metheno)-6,14,17-trioxa-2-thia-3,5-diazacyclononadeca[1,2,3-cd]indene-7-carboxylic Acid]: the Ki at GST-MCL-1 (setting [3]) stood at 0.632 nM; at GST-MCL-1 (setting [4]), 0.301 nM. In addition, the IC50 in assay [1] was found to be 0.0042 µM; in assay [2], 0.00571 µM.

With `Cc1c(Cl)c2c(Cl)c(C)c1-c1c(-c3ccc(F)cc3)sc3ncnc(c13)O[C@@H](C(=O)O)Cc1cc(ccc1OCc1ccnc([C@@H]3CN4CCC[C@H]4CO3)n1)OC[C@@H](CN1CCN(C)CC1)O2` [Example 150, (7R,16R)-19,23-dichloro-1-(4-fluorophenyl)-10-({2-[(3S,8aS)-hexahydro-1H-pyrrolo[2,1-c][1,4]oxazin-3-yl]pyrimidin-4-yl}methoxy)-20,22-dimethyl-16-[(4-methylpiperazin-1-yl)methyl]-7,8,15,16-tetrahydro-18,21-etheno-13,9-(metheno)-6,14,17-trioxa-2-thia-3,5-diazacyclononadeca[1,2,3-cd]indene-7-carboxylic Acid], the results for the Ki on GST-MCL-1 (setting [3]) and on GST-MCL-1 (setting [4]) were 0.267 nM and 0.043 nM, respectively. The values for the IC50 in assay [1] and in assay [2] were 0.00151 µM and 0.00253 µM, respectively.

Consider `COCCOCCOCCOc1ccc(-c2nccc(COc3ccc4cc3C[C@H](C(=O)O)Oc3ncnc5sc(C6CCCCC6)c(c35)-c3c(C)c(Cl)c(c(Cl)c3C)O[C@H](CN3CCN(C)CC3)CO4)n2)cc1` [Example 90, (7R,16R)-19,23-dichloro-1-cyclohexyl-10-{[2-(4-{2-[2-(2-methoxyethoxy)ethoxy]ethoxy}phenyl)pyrimidin-4-yl]methoxy}-20,22-dimethyl-16-[(4-methylpiperazin-1-yl)methyl]-7,8,15,16-tetrahydro-18,21-etheno-13,9-(metheno)-6,14,17-trioxa-2-thia-3,5-diazacyclononadeca[1,2,3-cd]indene-7-carboxylic Acid], for which the Ki on GST-MCL-1 (setting [3]) is 3.41 nM; at GST-MCL-1 (setting [4]), 0.044 nM. For the same compound, the values for the IC50 in assay [1] and in assay [2] were 0.000183 µM and 0.000787 µM, respectively.

For `Cc1c(Cl)c2c(Cl)c(C)c1-c1c(-c3ccc(F)cc3)sc3ncnc(c13)O[C@@H](C(=O)O)Cc1cc(ccc1OCc1ccnc([C@@]3(O)CCCC[C@@H]3O)n1)OC[C@@H](CN1CCN(C)CC1)O2` [Example 38, (7R,16R)-19,23-dichloro-10-({2-[(1S,2S)-1,2-dihydroxycyclohexyl]pyrimidin-4-yl}methoxy)-1-(4-fluorophenyl)-20,22-dimethyl-16-[(4-methylpiperazin-1-yl)methyl]-7,8,15,16-tetrahydro-18,21-etheno-9,13-(metheno)-6,14,17-trioxa-2-thia-3,5-diazacyclononadeca[1,2,3-cd]indene-7-carboxylic Acid], the Ki on GST-MCL-1 (setting [3]) stood at 0.416 nM; on GST-MCL-1 (setting [4]) it was 0.106 nM. The IC50 was 0.00236 µM in assay [1] and 0.00577 µM in assay [2].

Consider `COCCOCCOCCOCCOC1(c2nccc(COc3ccc4cc3C[C@H](C(=O)O)Oc3ncnc5sc(-c6ccc(F)cc6)c(c35)-c3c(C)c(Cl)c(c(Cl)c3C)O[C@H](CN3CCN(C)CC3)CO4)n2)CCC1` [Example 64, (7R,16R)-19,23-dichloro-1-(4-fluorophenyl)-20,22-dimethyl-16-[(4-methylpiperazin-1-yl)methyl]-10-[(2-{1-[(2,5,8,11-tetraoxatridecan-13-yl)oxy]cyclobutyl}pyrimidin-4-yl)methoxy]-7,8,15,16-tetrahydro-18,21-etheno-9,13-(metheno)-6,14,17-trioxa-2-thia-3,5-diazacyclononadeca[1,2,3-cd]indene-7-carboxylic Acid], for which the Ki on GST-MCL-1 (setting [3]) turned out to be 0.167 nM; on GST-MCL-1 (setting [4]), 0.038 nM. Also, the IC50 in assay [1] is 0.00163 µM; in assay [2] it was 0.00243 µM.

For `COCCOCCOCCOc1cncc(COc2ccc3cc2C[C@H](C(=O)O)Oc2ncnc4sc(-c5ccc(F)cc5)c(c24)-c2c(C)c(Cl)c(c(Cl)c2C)O[C@H](CN2CCN(C)CC2)CO3)n1` [Example 176, (7R,16R)-19,23-dichloro-1-(4-fluorophenyl)-10-[(6-{2-[2-(2-methoxyethoxy)ethoxy]ethoxy}pyrazin-2-yl)methoxy]-20,22-dimethyl-16-[(4-methylpiperazin-1-yl)methyl]-7,8,15,16-tetrahydro-18,21-etheno-13,9-(metheno)-6,14,17-trioxa-2-thia-3,5-diazacyclononadeca[1,2,3-cd]indene-7-carboxylic Acid], the Ki came to 0.868 nM on GST-MCL-1 (setting [3]) and 0.151 nM at GST-MCL-1 (setting [4]). Also, the IC50 was 0.00386 µM in assay [1] and 0.0073 µM in assay [2].

On to `COCCOCCOCCOCC1(C)CC=C(c2nccc(COc3ccc4cc3C[C@H](C(=O)O)Oc3ncnc5sc(-c6ccc(F)cc6)c(c35)-c3c(C)c(Cl)c(c(Cl)c3C)O[C@H](CN3CCN(C)CC3)CO4)n2)CC1` (single isomer, unassigned) [Example 112, (7R,16R)-19,23-dichloro-1-(4-fluorophenyl)-20,22-dimethyl-16-[(4-methylpiperazin-1-yl)methyl]-10-({2-[(4R*)-4-methyl-4-(2,5,8,11-tetraoxadodecan-1-yl)cyclohex-1-en-1-yl]pyrimidin-4-yl}methoxy)-7,8,15,16-tetrahydro-18,21-etheno-13,9-(metheno)-6,14,17-trioxa-2-thia-3,5-diazacyclononadeca[1,2,3-cd]indene-7-carboxylic Acid], for which the Ki came to 0.217 nM at GST-MCL-1 (setting [3]) and 0.012 nM on GST-MCL-1 (setting [4]). Besides, the IC50 in assay [1] stood at 0.000132 µM; in assay [2] it was 0.000283 µM.

On to `Cc1c(Cl)c2c(Cl)c(C)c1-c1c(-c3ccc(F)cc3)sc3ncnc(c13)O[C@@H](C(=O)O)Cc1cc(ccc1OCc1ccnc(C3(COCCOC[C@H]4COCCO4)CCC3)n1)OC[C@@H](CN1CCN(C)CC1)O2` [Example 77, (7R,16R)-19,23-dichloro-10-[(2-{1-[(2-{[(2R)-1,4-dioxan-2-yl]methoxy}ethoxy)methyl]cyclobutyl}pyrimidin-4-yl)methoxy]-1-(4-fluorophenyl)-20,22-dimethyl-16-[(4-methylpiperazin-1-yl)methyl]-7,8,15,16-tetrahydro-18,21-etheno-13,9-(metheno)-6,14,17-trioxa-2-thia-3,5-diazacyclononadeca[1,2,3-cd]indene-7-carboxylic Acid], for which the Ki came out at 0.325 nM at GST-MCL-1 (setting [3]) and 0.089 nM on GST-MCL-1 (setting [4]). Also, the IC50 in assay [1] came out at 0.000193 µM; in assay [2], 0.000405 µM.

Take `COCCOCCOCCOCc1cc(OC[C@H]2COCCO2)ccc1-c1nccc(COc2ccc3cc2C[C@H](C(=O)O)Oc2ncnc4sc(-c5ccc(F)cc5)c(c24)-c2c(C)c(Cl)c(c(Cl)c2C)O[C@H](CN2CCN(C)CC2)CO3)n1` [Example 155, (7R,16R)-19,23-dichloro-10-({2-[4-{[(2R)-1,4-dioxan-2-yl]methoxy}-2-(2,5,8,11-tetraoxadodecan-1-yl)phenyl]pyrimidin-4-yl}methoxy)-1-(4-fluorophenyl)-20,22-dimethyl-16-[(4-methylpiperazin-1-yl)methyl]-7,8,15,16-tetrahydro-18,21-etheno-13,9-(metheno)-6,14,17-trioxa-2-thia-3,5-diazacyclononadeca[1,2,3-cd]indene-7-carboxylic Acid]: the Ki came out at 0.03 nM at GST-MCL-1 (setting [3]) and 0.001 nM at GST-MCL-1 (setting [4]). The IC50 in assay [1] is 0.000188 µM; in assay [2], 0.000187 µM.
